In one assay the target is cleaved human TREX1 (Homo sapiens (Human), UniProt Q9NSU2). Kind of assay: TREX1 Thermal Shift Binding Assay (human). The following applies: 100 μM compound, 5 μM TREX1. Here is the method:
(§1) Example B is a protein thermal shift assay used to assess the binding of TREX1 inhibitors to TREX1 protein. In this assay, TREX1 protein unfolding with increasing temperature was measured in the presence and absence of TREX1 inhibitors by following the increase in fluorescence of a thiol-reactive dye (e.g BODIPY FL-cystine) as it reacts with exposed TREX1 cysteine residues. The assay was conducted using human (SEQ ID NO: 1), or murine (SEQ ID NO: 2) TREX1 protein constructs.
(§2) The thermal shift assays used recombinant protein corresponding to human (SEQ ID NO: 1) and murine (SEQ ID NO: 2) TREX1. The protein encoding plasmid contained a N-terminal MBP (maltose binding protein) tag followed by the TREX1 coding sequence within the pMAL-c5E vector. The plasmid was transfected into a BL21 (DE3) E. coli expression strain. Protein was purified from the bacterial lysate using an Amylose resin column. The MBP tag was cleaved from the purified protein using recombinant enterokinase (EMD Millipore #69066-3). The cleaved TREX1 protein was further purified on a Q-Sepharose column followed by a heparin column.
(§3) Binding of compounds to both human and murine TREX1 were measured by protein thermal shift assays. (Huynh K, Partch C L. Current Protocols in Protein Science: Analysis of protein stability and ligand interactions by thermal shift assay. Current protocols in protein science/editorial board, John E Coligan. [et al]. 2015; 79:28.9.1-28.9.14. doi:10.1002/0471140864.ps2809s79.). Thermal shift assays were conducted in sealed 96-well PCR plates containing 5 μM TREX1 protein, 100 μM compound, and 2 μM BODIPY FL-cystine (Sigma) in either 20 μL assay buffer (20 mM Tris, 7.5, 5 mM MgCl2, 0.002% Triton X-100) or 20 μL phosphate buffered saline (PBS). Using a RT-qPCR machine (Mx3005P, Stratagene) changes in fluorescence (excitation at 492 nm and emission at 516 nm) were monitored as temperature was increased from 25° C. to 96° C. at a rate of 1° C. every 2 minutes. Tm values were calculated from the first derivative plot of fluorescence intensity versus temperature. The results shown in Table 6 indicate the examples bind to human TREX1 and murine TREX1. ND indicates assay was not done.

In a further assay the target is murine TREX1 (Mus musculus (Mouse), UniProt Q91XB0). Kind of assay: TREX1 Exonuclease Assay (murine enzyme). Format: biochemical. The following applies: murine TREX1 1 nM, FAM/BHQ1-labeled DNA oligonucleotide. Here is the method:
(§4) The TREX1 Exonuclease assay is an exemplary in vitro assay for measuring the activity of the TREX1 inhibitors of the present invention. In this assay, TREX1 exonuclease activity was evaluated by measuring the increase in fluorescence resulting from TREX1-catalyzed removal of a quencher from the 3′ end of a FAM-labeled DNA oligonucleotide (5′FAM-CCA CGA GAG CGT-BHQ1-3′). The assay was conducted using Wild Type (WT) human or murine TREX1 enzyme constructs corresponding to amino acids 55-297 of UniProt ID Q9NSU2-1 (SEQ ID NO: 1), or amino acids 1-242 of UniProt ID Q91XB0-1 (SEQ ID NO: 2), respectively. See, e.g., Example A.
(§5) For human TREX1, the nucleotide sequence of the gene construct was codon optimized for expression in the bacterial host. The sequence was incorporated into the pMAL-c5e vector (NEB) downstream of a solubility-promoting MBP (maltose binding protein) fusion partner. The fusion protein product was expressed in E. coli strain BL21 (DE3) (Millipore) and purified in a series of chromatographic steps. Initial steps were conducted using a dextrin sepharose affinity column followed by a Q-sepharose ion exchange column (both GE Healthcare). After the second column the MBP partner was removed by incubation with enterokinase (NEB). Further purification was carried out with the second application of a Q-sepharose column followed by a Superdex 75 (GE Healthcare) size exclusion column. Finally, a heparin sepharose column (GE Healthcare) was applied to remove contaminating nucleotides. Similar methods were used in the preparation of the murine TREX1 enzyme and are described in Example B set forth below.
(§6) To evaluate the effect of compounds on TREX1 activity, test compounds were serially diluted (11-point, 3-fold) from 10 mM stock solutions and delivered to 384-well low-volume assay plates in 80 nL DMSO using an acoustic dispenser. Next, 4 μL of human TREX1 (0.5 nM), or murine TREX1 (1 nM), diluted in assay buffer (20 mM Tris pH 7.5, 5 mM MgCl2, 100 μg/mL BSA, 0.002% Triton X-100, 2 mM DTT), was added to the assay plate. After incubating for 30 minutes, 4 μL of labeled DNA oligonucleotide (500 nM) in assay buffer was added to initiate TREX1 exonuclease activity. The reaction was allowed to proceed for 45 minutes at room temperature prior to the addition of 4 μL of 150 mM EDTA to halt TREX1 activity. Assay plates were equilibrated for an additional 30 minutes and read on an EnVision Plate Reader (Perkin Elmer) to measure fluorescence emission at 535 nm following excitation at 485 nm. Fluorescence was plotted as a function of log molar compound concentration and fit to four-parameter dose-response equation to determine compound IC50.

A further assay deals with cleaved mouse TREX1 (Mus musculus (Mouse), UniProt Q91XB0). Kind of assay: TREX1 Thermal Shift Binding Assay (mouse). Particulars: 100 μM compound, 5 μM TREX1. Here is the method:
as §1, §2, §3

The next assay deals with human TREX1 (Homo sapiens (Human), UniProt Q9NSU2). The experiment in a line: TREX1 Exonuclease Assay (human enzyme). Format: biochemical. Particulars: human TREX1 0.5 nM, FAM/BHQ1-labeled DNA oligonucleotide. As for the experimental part: as §4, §5, §6
Assay [1] has as its system THP1 Dual cells (ISRE Lucia reporter, cGAS-STING pathway). The experiment in a line: THP1 monocyte assay, ISRE Lucia luciferase reporter. Format: cell-based, human. The following applies: 48 hours, luciferase signal versus control wells without compound. From the text:
Example C is a cell-based assay for TREX1 inhibitors using THP1 Dual™ cells (Invivogen), a human monocyte cell line that has stable integration of an Interferon Stimulated Response Element (ISRE) Lucia reporter gene. The Lucia gene encodes a secreted luciferase reporter protein, under the control of an ISG54 minimal promoter in conjunction with five IFN-stimulated response elements. Activation of the cGAS-STING pathway in THP1 Dual™ cells leads to enhanced luciferase secretion and increased luminescence.
A cell-based assay was established using THP1 Dual™ cells (Invivogen), a human monocyte cell line that has stable integration of an Interferon Stimulated Response Element (ISRE) Lucia reporter gene. The Lucia gene encodes a secreted luciferase reporter protein, under the control of an ISG54 minimal promoter in conjunction with five IFN-stimulated response elements. Activation of the cGAS-STING pathway in these cells leads to enhanced luciferase secretion. The assay was conducted in standard 384-well white tissue culture plates. Cells (25,000 in 25 μL RPMI 1640 containing 10% Heat-Inactivated FBS, 1× Glutagro, 10 mM HEPES, 1 mM sodium pyruvate, 1× Pen/Strep, 100 μg/mL Normocin, 100 μg/mL Zeocin, 10 μg/mL Blasticidin) were added to the plate followed by 25 μL of compound in the same media+0.2% DMSO. The assay was incubated for 48 hours at 37° C. in 5% CO2. An aliquot of 5 μl was removed to combine with 12.5 μL of the luciferase detection reagent, QUANTI-Luc™ Gold (Invivogen) in a white 384-well plate. The luminescent signal was then read using an EnVision plate reader (Perkin Elmer). The fold activation was calculated by dividing the signal in wells containing test compound by the signal in the control wells without compound (see Table 7).

Assay [2] has as its system interferon stimulated genes (ISGs) in THP1 Dual cells. The experiment in a line: RT-qPCR assay of interferon stimulated gene expression. Format: cell-based, human. The following applies: substance alone, 24 hours, normalized to GAPDH, unstimulated control = 1. The text has this: Example D is a cell based assay that measures the increase in the expression of interferon stimulated genes (ISG) by RT-qPCR that are induced by TREX1 inhibitors when THP1 Dual™ cells are transfected with double-stranded DNA. The double stranded DNA used to transfect cells was VACV-70 (Invivogen), a 70 base pair oligonucleotide containing viral DNA motifs (Unterholzner L. et al., 2010. IFI16 is an innate immune sensor for intracellular DNA. Nat Immunol. 11(11):997-1004). Activation of cGAS-STING pathway in THP1 Dual™ cells increases the expression of ISGs.
The RT-qPCR assay was used to assess the ability of TREX1 inhibitors to enhance the expression of interferon stimulated genes (ISGs) in cells transfected with double-stranded DNA. The double stranded DNA used to transfect cells was VACV-70 (Invivogen), a 70 base pair oligonucleotide containing viral DNA motifs (Unterholzner L. et al., 2010. IFI16 is an innate immune sensor for intracellular DNA. Nat Immunol. 11(11):997-1004). Human THP1 Dual™ cells (Invivogen), were treated with test compound in the presence or absence of 1,200 ng/mL VACV-70, or with VACV-70 alone, for 24 hours. Cells were harvested by centrifugation and washed with phosphate buffer saline. Total RNA was isolated using Qiagen RNeasy mini kit. Genomic DNA was degraded using Thermo Scientific DNase 1 kit. Total RNA was quantified using a Nanodrop spectrophotometer. Using equal amounts of RNA, cDNA was synthesized using Invitrogen Superstrand III First Strand synthesis kit. Target and reference gene expression levels were determined by RT-qPCR using TaqMan gene expression assays and a Stratagene Mx3005P QPCR system (all reagents were from TaqMan, Applied Biosystems). Data were analyzed by the Comparative CT method. GAPDH was used for normalization. Target genes that were analyzed included interferon stimulated genes (INF-β, CXCL10, IFIT1, IFIT2, IFIT3, IFI44, and IFI44L).
On the technique in general: In qPCR the cycle at which signal appears reflects the starting amount.

[3] abbreviates: PBS, read-out: Thermal shift cleaved human TREX1, (ΔTm ° C.) PBS.
Where [4] appears, read: assay buffer, read-out: Thermal shift cleaved human TREX1, (ΔTm ° C.) Assay buffer.
[5] abbreviates: PBS, read-out: Thermal shift cleaved mouse TREX1, (ΔTm ° C.) PBS.
Where [6] appears, read: assay buffer, read-out: Thermal shift cleaved mouse TREX1, (ΔTm ° C.) Assay buffer.

Where a name gives a salt, the structure may show the parent alone. Read-outs that look alike come from different tables or passages of the source.

murine TREX1, sequence (Q91XB0 1-242): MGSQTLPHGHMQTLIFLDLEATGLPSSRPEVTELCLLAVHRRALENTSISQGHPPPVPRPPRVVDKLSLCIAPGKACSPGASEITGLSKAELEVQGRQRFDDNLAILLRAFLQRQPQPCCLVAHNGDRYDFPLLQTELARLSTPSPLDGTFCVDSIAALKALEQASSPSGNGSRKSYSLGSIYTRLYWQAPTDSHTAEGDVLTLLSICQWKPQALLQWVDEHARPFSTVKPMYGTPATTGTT
cleaved mouse TREX1, sequence (Q91XB0 1-242): as above
cleaved human TREX1, sequence (Q9NSU2 1-242): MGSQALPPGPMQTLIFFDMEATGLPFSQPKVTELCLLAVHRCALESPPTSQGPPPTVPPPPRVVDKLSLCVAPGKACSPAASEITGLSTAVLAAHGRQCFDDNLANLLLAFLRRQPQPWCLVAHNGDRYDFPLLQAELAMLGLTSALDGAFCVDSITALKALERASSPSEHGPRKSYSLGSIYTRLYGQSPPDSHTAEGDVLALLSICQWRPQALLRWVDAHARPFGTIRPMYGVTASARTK
human TREX1, sequence (Q9NSU2 1-242): as above

For the molecule `N[C@@H]1C[C@H]2C(=O)N([C@H](CCC(=O)O)C(=O)NCc3ccc(C(F)(F)F)cc3)CCC(CCc3ccccc3)N2C1` (single isomer, unassigned) [Example 2B], the ΔTm at 100 µM on cleaved human TREX1 (setting [3]) is above 8 °C; at cleaved human TREX1 (setting [4]), above 8 °C; at cleaved mouse TREX1 (setting [5]) it was 4 to 8 °C; at cleaved mouse TREX1 (setting [6]), 4 to 8 °C. Besides, the IC50 on murine TREX1 and against human TREX1 was below 1000 nM throughout.

For `CC(C)C[C@H](C(=O)NCc1ccc(Cl)c(Cl)c1)N1CCC(CCc2ccccc2)N2C[C@H](N)C[C@H]2C1=O` (stereo partly drawn) [Example 1, (2R)-2-((8R,9aS)-8-amino-1-oxo-5-phenethylhexahydro-1H-pyrrolo[1,2-a][1,4]diazepin-2(3H)-yl)-N-(3,4-dichlorobenzyl)-4-methylpentanamide.HCl], the ΔTm at 100 µM at cleaved human TREX1 (setting [3]) is above 8 °C; at cleaved human TREX1 (setting [4]) it was above 8 °C; on cleaved mouse TREX1 (setting [5]), 4 to 8 °C; on cleaved mouse TREX1 (setting [6]), 4 to 8 °C.

In the case of `N[C@@H]1C[C@H]2C(=O)N([C@H](CO)C(=O)NCc3ccc(Cl)c(Cl)c3)CCC(CCc3ccccc3)N2C1` (stereo partly drawn) [Example 3, (2R)-2-((8R,9aS)-8-amino-1-oxo-5-phenethylhexahydro-1H-pyrrolo[1,2-a][1,4]diazepin-2(3H)-yl)-N-(3,4-dichlorobenzyl)-3-hydroxypropanamide.HCl], the ΔTm at 100 µM was above 8 °C at cleaved human TREX1 (setting [3]), above 8 °C at cleaved human TREX1 (setting [4]), 4 to 8 °C at cleaved mouse TREX1 (setting [5]) and 4 to 8 °C on cleaved mouse TREX1 (setting [6]).

As for `N[C@@H]1C[C@H]2C(=O)N([C@H](Cc3ccc(O)cc3)C(=O)NCc3ccc(Cl)c(Cl)c3)CCC(CCc3ccccc3)N2C1` (stereo partly shown) [Example 4], the ΔTm at 100 µM was above 8 °C on cleaved human TREX1 (setting [3]), above 8 °C at cleaved human TREX1 (setting [4]), 4 to 8 °C on cleaved mouse TREX1 (setting [5]) and 4 to 8 °C at cleaved mouse TREX1 (setting [6]). In addition, the half-inhibitory concentration (IC50) against murine TREX1 and against human TREX1 was below 1000 nM each time.

Take `N[C@@H]1C[C@H]2C(=O)N([C@H](CC(=O)O)C(=O)NCc3ccc(Cl)c(Cl)c3)CCC(CCc3ccccc3)N2C1` (stereo partly shown) [Example 15]: the “Fold activation @ 10 μM” value in assay [1] is given as 2. Moreover, in assay [2], the CXCL10 expression is given as 1, the IFI44L expression worked out at 20, the IFI44 expression worked out at 20 and the IFIT1 expression worked out at 10. In assay [2], this molecule registered an IFIT2 expression of 32, an IFIT3 expression of 20 and an IFN-β expression of 5. The IC50 on murine TREX1 is below 1000 nM. At human TREX1, this molecule had an IC50 below 1000 nM.

In the case of `CC(C)C[C@H](C(=O)NCc1ccc(Cl)c(Cl)c1)N1CCC(CCc2ccccc2)N(CCN)CC1=O` (stereo partly shown) [Example 47], the half-maximal inhibitory concentration (IC50) at murine TREX1 fell in the range of 10000 to 100000 nM; against human TREX1, 1000 to 9990 nM.

Turning to `Cc1nnc(CC[C@H](C(=O)NCc2ccc(Cl)c(Cl)c2)N2CCC(CCc3ccccc3)N3C[C@H](N)C[C@H]3C2=O)[nH]1` (stereo partly shown) [Example 48], the IC50 against murine TREX1 and on human TREX1 was below 1000 nM in each case.

By IC50 is commonly meant the concentration that gives 50% inhibition. A higher IC50 goes with weaker potency in that assay.

For the origin of these results see patent US11306098B2, “Substituted pyrrolo[1,2-a]pyrazines and pyrrolo[1,2-a][1,4]diazepines as TREX1 inhibitors” (VENENUM BIODESIGN, LLC, priority 2019, dated 2022).
